Reference: patent publication US6069235A, “Method for carbohydrate engineering of glycoproteins” (Monsanto Company, priority 1994, dated 2000)

Key:
[1] = tested on: CHO-K1 line 2.14 cells secreting hsCD2; test: Quantitative assay of hsCD2 expression level in line 2.14 cells cultured with NB-DNJ; assay type: cell-based, Chinese hamster; settings: 0.5-2 mM NB-DNJ
Description: For the expression of hsCD2, the Xba I-Bam H1 fragment was sub-cloned into the polylinker of pEE6.hcmv-GS (Bebbington and Hentschel, 1987; Davis et al., 1990). The expression construct (20 μg) was transfected with calcium phosphate into CHO-K1 cells and methionine sulfoximine-resistant clones were selected as described previously (Davis et al., 1990). To detect expression the conventional solid-phase, radioactive inhibition binding assay (Barclay and Ward, 1982) was used. This utilized human sCD2 domain 1 expressed as a fusion protein as described for rat CD2 domain 1 (Driscoll et al., 1991) adsorbed onto vinyl microtitre plates as a binding target and monitored inhibition of the binding of the anti-human CD2 mAb, X3 mAb to the plate; the bound mAb was detected with [I^125 ]-labelled rabbit anti-mouse F(ab'). For large scale production the highest-expressing cell line (line 2.14) was grown to confluence in cell factories (Nunc) and sodium butyrate was then added to a final concentration of 2 mM. The cultures were then left for a further 3-4 weeks prior to harvesting.
In initial optimization tests with NB-DNJ, 2×500 cm^2 flasks (Nunc) were seeded with line 2.14 cells in 75 ml glutamine-free medium GMEM-S (Gibco Ltd, Glasgow, U.K.) 10% Fetal Calf Serum (FCS) containing NB-DNJ at 0 mM, 0.5 mM, 1 mM, 1.5 mM or 2 mM. […]

glucosidase I = molecular target: T1, glucosidase I (Cricetulus griseus, UniProt A0A9J7K0I4); test: Endo H sensitivity of hsCD2 secreted by transfected CHO-K1 cells (line 2.14) cultured with NB-DNJ; assay type: cell-based, Chinese hamster
T1 construct: endogenous in cells; host or cells: CHO-K1, transfected line 2.14 (the transfected gene is hsCD2, not glucosidase I)
T1 sequence (A0A9J7K0I4 1-834): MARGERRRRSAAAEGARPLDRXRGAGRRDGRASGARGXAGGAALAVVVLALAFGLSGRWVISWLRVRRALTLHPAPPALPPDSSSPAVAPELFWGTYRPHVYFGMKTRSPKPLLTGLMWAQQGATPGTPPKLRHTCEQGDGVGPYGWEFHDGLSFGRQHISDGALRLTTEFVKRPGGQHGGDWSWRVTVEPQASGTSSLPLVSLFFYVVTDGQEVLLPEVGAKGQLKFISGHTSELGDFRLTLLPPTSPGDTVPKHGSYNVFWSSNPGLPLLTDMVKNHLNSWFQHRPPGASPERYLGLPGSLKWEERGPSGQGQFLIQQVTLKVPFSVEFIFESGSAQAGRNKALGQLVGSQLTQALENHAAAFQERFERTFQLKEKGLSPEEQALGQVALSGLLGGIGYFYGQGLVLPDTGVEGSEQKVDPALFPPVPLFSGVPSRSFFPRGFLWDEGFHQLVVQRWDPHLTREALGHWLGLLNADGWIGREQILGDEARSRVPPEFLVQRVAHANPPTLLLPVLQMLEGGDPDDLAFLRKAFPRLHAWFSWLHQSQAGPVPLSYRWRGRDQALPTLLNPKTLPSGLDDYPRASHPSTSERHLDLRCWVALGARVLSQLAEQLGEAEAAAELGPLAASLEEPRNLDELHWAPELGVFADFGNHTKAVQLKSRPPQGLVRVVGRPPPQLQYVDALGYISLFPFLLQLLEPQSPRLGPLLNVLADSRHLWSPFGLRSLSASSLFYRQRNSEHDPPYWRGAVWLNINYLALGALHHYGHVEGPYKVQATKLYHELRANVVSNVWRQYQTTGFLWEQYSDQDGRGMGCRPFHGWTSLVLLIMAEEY
Description: In initial optimization tests with NB-DNJ, 2×500 cm^2 flasks (Nunc) were seeded with line 2.14 cells in 75 ml glutamine-free medium GMEM-S (Gibco Ltd, Glasgow, U.K.) 10% Fetal Calf Serum (FCS) containing NB-DNJ at 0 mM, 0.5 mM, 1 mM, 1.5 mM or 2 mM. After 6 days 100 mls of CB2, 10% FCS containing sodium butyrate to give a final concentration of 2 mM and NB-DNJ at 0, 0.5 mM, 1 mM, 1.5 mM or 2 mM was added. Ten days after the addition of the butyrate, 0.5 ml samples of the supernatant were taken for comparison of secretion levels. The cultures were left for a total of 15 days before harvesting the supernatants. When large amounts of endo H treated hsCD2 were required for crystallization, the cells were grown to confluence in cell factories as described above and NB-DNJ was added with the sodium butyrate to a final concentration of 1.5 mM. These cultures were also left for a further 3-4 weeks prior to harvesting.
For analysis of endo H sensitivity after preparation of the hsCD2 in the presence of various concentrations of NB-DNJ, 10 μg aliquots of the purified glycoproteins were incubated with 4, 20 or 100 mU/ml endo H-(Boehringer Mannheim) in 30 μl of 100 mM sodium acetate, pH 5.2. One unit (U) of endo H is the enzyme activity which hydrolyzes one micromole […] of dansyl-Asn-(GlcNAc)2 -(Man)5 within one minute at 37° C., pH 5.5. After incubation overnight at 370 the digested samples were boiled in 1% SDS under reducing conditions prior to electrophoresis in 15% SDS-PAGE gels. For large-scale endo H treatment of hsCD2 for crystallization tests, 4 mgs of the purified glycoprotein was concentrated to 1-2 mg/ml in 0.1 M sodium acetate, pH 5.2, and then digested with 100 mU/ml endo H overnight at 370. […] The eluting protein was determined to be essentially free of contaminating hsCD2 bearing non-endo H sensitive oligosaccharides by SDS-PAGE on a 15% acrylamide gel. […]

CCCCN1C[C@H](O)[C@@H](O)[C@H](O)[C@H]1CO [NB-DNJ, N-butyl deoxynojirimycin]
reduction in expression of hsCD2 [1]: three- to four-fold reduction in expression | oligosaccharides of hsCD2 converted to endo H sensitive structures (glucosidase I; N-butyldeoxynojirimycin added to cultures of non-mutant CHO cells): > 85% | inhibition of glucosidase I (judged by endo H sensitivity of hsCD2) (glucosidase I; NB-DNJ 1.5 mM in culture of line 2.14 CHO cells): complete | hsCD2 remaining endo H resistant (densitometric analysis of gel) (glucosidase I; highest concentration of NB-DNJ (2 mM)): approximately 15%
